Assay results taken from patent publication US10519114B2, “Peptidomimetics and methods of using the same” (The Regents of the University of Michigan, priority 2016, dated 2019).

Key:
[1] = molecular target: T1, rat δ (C6-DOR) opioid receptor (Rattus norvegicus, UniProt P33533); experiment: Radioligand binding assay, [3H]diprenorphine displacement, DOR; conditions: displacement of 0.2 nM [3H]diprenorphine, C6-DOR membranes; mean ± standard error
T1 construct: expressed in transfected cells
Experimental: (§1) In Vitro Pharmacology-Cell Lines and Membrane Preparations. All tissue culture reagents were purchased from Gibco Life Sciences (Grand Island, N.Y., U.S.). C6-rat glioma cells stably transfected with a rat μ (C6-MOR) or rat δ (C6-DOR) opioid receptor20 and Chinese hamster ovary (CHO) cells stably expressing a human K (CHO-KOR) opioid receptor21 were used for all in vitro assays. Cells were grown to confluence at 37° C. in 5% CO2 in Dulbecco's modified Eagle medium containing 10% fetal bovine serum and 5% penicillin/streptomycin. Membranes were prepared by washing confluent cells three times with ice cold phosphate buffered saline (0.9% NaCl, 0.61 mM Na2HPO4, 0.38 mM KH2PO4, pH 7.4). Cells were detached from the plates by incubation in warm harvesting buffer (20 mM HEPES, 150 mM NaCl, 0.68 mM EDTA, pH 7.4) and pelleted by centrifugation at 200 g for 3 min. The cell pellet was suspended in ice-cold 50 mM Tris-HCl buffer, pH 7.4, and homogenized with a Tissue Tearor (Biospec Products, Inc., Bartlesville, Okla., U.S.) for 20 s at setting 4. The homogenate was centrifuged at 20 000 g for 20 min at 4° C., and the pellet was rehomogenized in 50 mM Tris-HCl with a Tissue Tearor for 10 s at setting 2, followed by recentrifugation. The final pellet was resuspended in 50 mM Tris-HCl and frozen in aliquots at […]. Protein concentration was determined via Bradford assay using bovine serum albumin as the standard.
(§2) Radioligand Binding Assays. Radioactive compounds were purchased from Perkin-Elmer (Waltham, Mass., U.S.). Opioid ligand binding assays were performed using competitive displacement of 0.2 nM [3H]diprenorphine (250 μCi, 1.85 TBq/mmol) by the test compound from membrane preparations containing opioid receptors. The assay mixture, containing membrane suspension (20 μg protein/tube) in 50 mM Tris-HCl buffer (pH 7.4), [3H]diprenorphine, and various concentrations of test peptide, was incubated at room temperature for 1 h to allow binding to reach equilibrium. The samples were rapidly filtered through Whatman GF/C filters using a Brandel harvester (Brandel, Gaithersburg, Md., U.S.) and washed three times with 50 mM Tris-HCl buffer. The radioactivity retained on dried filters was determined by liquid scintillation counting after saturation with EcoLume liquid scintillation cocktail in a Wallac 1450 MicroBeta (Perkin-Elmer, Waltham, Mass., U.S.). Nonspecific binding was determined using 10 μM naloxone. Inhibitory constant (Ki) values were calculated using nonlinear regression analysis to fit a logistic equation to the competition data using GraphPad Prism, version 5.01, for Windows (GraphPad Software Inc., La Jolla, Calif.). The results presented are the mean±standard error from at least three separate assays performed in duplicate.

[2] = molecular target: T1, rat δ (C6-DOR) opioid receptor; experiment: Stimulation of [35S]GTPγS binding, DOR; type: biochemical; conditions: for Emax / % stimulation DOR: [35S]GTPγS maximal stimulation compared with 10 μM standard DPDPE; for EC50 / EC50 (nm) DOR: [35S]GTPγS binding, C6-DOR membranes, mean ± standard error
Experimental: as §1
(§3) Stimulation of [^35S]GTPyS Binding. Agonist stimulation of [35S]guanosine 5′-O-[γ-thio]triphosphate ([^35S]GTPγS, 1250 Ci, 46.2 TBq/mmol) binding was measured as described previously Briefly, membranes (10-20 μg of protein/tube) were incubated 1 h at room temperature in GTPyS buffer (50 mM Tris-HCl, 100 mM NaCl, 5 mM MgCl2, pH 7.4) containing 0.1 nM [^35S]GTPγS, 30 μM guanosine diphosphate (GDP), and varying concentrations of test peptides. Peptide stimulation of [^35S]GTPyS was compared with 10 μM standard compounds [D-Ala^2,N-MePhe^4,Gly-ol]encephalin (DAMGO) at MOR, D-Pen^2,5-enkephalin (DPDPE) at DOR, or […] at KOR. The reaction was terminated by rapidly filtering through GF/C filters and washing 10 times with GTPyS buffer, and retained radioactivity was measured as described above. The results presented are the mean±standard error from at least three separate assays performed in duplicate; maximal stimulation was determined using nonlinear regression analysis with GraphPad Prism (GraphPad Software Inc., La Jolla, Calif.).

[3] = molecular target: T2, human κ (CHO-KOR) opioid receptor (Homo sapiens, UniProt P41145); experiment: Radioligand binding assay, [3H]diprenorphine displacement, KOR; conditions: displacement of 0.2 nM [3H]diprenorphine, CHO-KOR membranes; mean ± standard error
T2 construct: expressed in transfected cells
T2 sequence (P41145 whole entry): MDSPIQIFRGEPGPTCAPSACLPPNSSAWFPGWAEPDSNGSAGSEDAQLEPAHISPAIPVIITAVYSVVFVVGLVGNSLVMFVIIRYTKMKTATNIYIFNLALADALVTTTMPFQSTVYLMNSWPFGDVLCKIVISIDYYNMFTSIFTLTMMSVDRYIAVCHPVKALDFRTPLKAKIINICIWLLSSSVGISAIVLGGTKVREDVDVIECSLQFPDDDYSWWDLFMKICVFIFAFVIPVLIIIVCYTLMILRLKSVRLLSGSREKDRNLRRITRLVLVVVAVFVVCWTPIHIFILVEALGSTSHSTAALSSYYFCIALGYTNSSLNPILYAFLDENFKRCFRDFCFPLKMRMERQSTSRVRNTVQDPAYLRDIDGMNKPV
Experimental: as §1, §2

[4] = molecular target: T3, rat μ (C6-MOR) opioid receptor (Rattus norvegicus, UniProt P33535); experiment: Stimulation of [35S]GTPγS binding, MOR; type: biochemical; conditions: for EC50: [35S]GTPγS binding, C6-MOR membranes, mean ± standard error; for Emax: [35S]GTPγS maximal stimulation compared with 10 μM standard DAMGO
T3 construct: expressed in transfected cells
T3 sequence (P33535 whole entry): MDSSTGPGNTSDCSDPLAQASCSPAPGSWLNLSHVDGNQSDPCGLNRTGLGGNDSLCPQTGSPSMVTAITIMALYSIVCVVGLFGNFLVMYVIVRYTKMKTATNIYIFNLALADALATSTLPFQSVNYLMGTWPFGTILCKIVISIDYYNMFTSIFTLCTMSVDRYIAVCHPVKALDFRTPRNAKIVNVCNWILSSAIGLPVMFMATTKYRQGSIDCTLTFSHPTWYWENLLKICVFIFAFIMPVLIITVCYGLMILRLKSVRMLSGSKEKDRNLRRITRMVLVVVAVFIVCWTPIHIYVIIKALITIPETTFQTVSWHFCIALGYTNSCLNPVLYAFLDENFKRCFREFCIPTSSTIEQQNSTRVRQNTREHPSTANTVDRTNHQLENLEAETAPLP
Experimental: as §1, §3

[5] = molecular target: T3, rat μ (C6-MOR) opioid receptor; experiment: Radioligand binding assay, [3H]diprenorphine displacement, MOR; conditions: displacement of 0.2 nM [3H]diprenorphine, C6-MOR membranes; mean ± standard error
Experimental: as §1, §2

[6] = molecular target: T2, human κ (CHO-KOR) opioid receptor; experiment: Stimulation of [35S]GTPγS binding, KOR; type: biochemical; conditions: for EC50 / EC50 (nm) KOR: [35S]GTPγS binding, CHO-KOR membranes, mean ± standard error; for Emax / % stimulation KOR: [35S]GTPγS maximal stimulation compared with 10 μM standard U-69,593
Experimental: as §1, §3

T1 sequence (P33533 whole entry): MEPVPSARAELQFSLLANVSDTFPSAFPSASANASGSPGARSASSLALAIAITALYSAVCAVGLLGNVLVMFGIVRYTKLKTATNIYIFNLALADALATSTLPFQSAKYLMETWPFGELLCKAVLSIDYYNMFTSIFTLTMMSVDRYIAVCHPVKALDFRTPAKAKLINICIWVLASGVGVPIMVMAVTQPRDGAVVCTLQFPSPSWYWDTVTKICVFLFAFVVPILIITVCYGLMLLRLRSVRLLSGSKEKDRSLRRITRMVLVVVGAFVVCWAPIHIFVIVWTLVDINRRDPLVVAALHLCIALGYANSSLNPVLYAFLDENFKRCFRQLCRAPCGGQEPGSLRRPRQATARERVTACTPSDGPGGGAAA

Structure (SMILES) | Ki [1] | Emax [2] | Ki [3] | EC50 [4] | Emax [4] | Ki [5] | EC50 [6] | Emax [6] | EC50 [2] | EC50 (nm) DOR [2] | % stimulation DOR [2] | EC50 (nm) KOR [6] | % stimulation KOR [6]
CC(=O)N1CC[C@@H](NC(=O)[C@@H](N)Cc2c(C)cc(O)cc2C)c2cc(Oc3ccc(Cl)cc3)ccc21 [Compound 1026] | 3.1 ± 0.69 nM | 0% | 45.5 ± 6.67 nM | 7.01 ± 1.49 nM | 61.2 ± 6.93% | 0.1 ± 0.03 nM | 1820 nM | 47.3% |  |  |  |  | 
CC(=O)N1CC[C@@H](NC(=O)[C@@H](N)Cc2c(C)cc(O)cc2C)c2cc(Oc3cccc(Cl)c3)ccc21 [Compound 1027] | 5.03 ± 0.29 nM | 7.42 ± 5.57% | 21 nM | 8.07 ± 4.81 nM | 72.2 ± 2.41% | 0.05 ± 0.01 nM | 791 nM | 55.1% | 431 ± 216 nM |  |  |  | 
Cc1cc(O)cc(C)c1C[C@H](N)C(=O)N[C@@H]1CCNc2ccc(Cc3c(Cl)cccc3Cl)cc21 [Compound 1032] | 4.61 ± 0.06 nM |  | 4.85 ± 0.66 nM | 2040 nM | 33.6% | 0.08 ± 0.01 nM |  | 0% |  | dns | dns |  | 
Cc1cc(C(N)=O)cc(C)c1C[C@H](N)C(=O)N[C@@H]1CCNc2ccc(Cc3ccccc3)cc21 [Compound 1048] | 32.3 ± 7.57 nM | 24.5 ± 3.25% | 170 ± 49.1 nM | 9.2 ± 4.58 nM | 97.9 ± 4.71% | 0.6 ± 0.12 nM |  |  | 1590 ± 738 nM |  |  | dns | dns
Cc1ccc2c(c1)CN(Cc1ccc3c(c1)[C@H](NC(=O)[C@@H](N)Cc1c(C)cc(O)cc1C)CCN3)CC2 [Compound 1049] | 23.3 ± 2.51 nM |  | 11.9 ± 6.13 nM | 0.35 ± 0.11 nM | 111 ± 4.65% | 0.17 ± 0.06 nM |  |  |  | dns | dns | dns | dns
Cc1cc(O)cc(C)c1C[C@H](N)C(=O)N[C@@H]1CCNc2ccc(Cc3ccc4c(c3)OCCO4)cc21 [Compound 1050] | 5.48 ± 0.81 nM |  | 116 ± 65.1 nM | 5.54 ± 0.12 nM | 87.5 ± 12% | 0.35 ± 0.11 nM |  |  |  | dns | dns | dns | dns
Cc1cc(O)cc(C)c1C[C@H](N)C(=O)N[C@@H]1CCNc2ccc(CN3CCC[C@H]4CCCC[C@@H]43)cc21 [Compound 1051] | 9.5 ± 1.22 nM |  | 7.03 ± 1.36 nM | 1.22 ± 0.07 nM | 36.2 ± 8.14% | 0.18 ± 0.03 nM |  |  |  | dns | dns | dns | dns
Cc1cc(O)cc(C)c1C[C@H](N)C(=O)N[C@@H]1CCNc2ccc(S(=O)(=O)c3ccccc3)cc21 [Compound 1052] | 2.92 ± 0.41 nM |  | 26 ± 7.12 nM | 12.9 ± 1.35 nM | 68.9 ± 10.3% | 3.01 ± 1.87 nM | 1310 nM | 38.5% |  | dns | dns |  | 
Cc1cc(O)cc(C)c1C[C@H](N)C(=O)N[C@@H]1CCNc2ccc(Sc3ccccc3)cc21 [Compound 1053] | 5.08 ± 0.52 nM |  | 10.8 ± 6.24 nM | 4.67 ± 1.44 nM | 51.6 ± 6.43% | 0.45 ± 0.11 nM | 1120 nM | 22.4% |  | dns | dns |  | 
Cc1cc(O)cc(C)c1C[C@H](N)C(=O)N[C@@H]1CCNc2ccc(CN3CCc4ccc(F)cc4C3)cc21 [Compound 1054] | 16.7 ± 2.47 nM |  | 9.63 ± 0.4 nM | 0.5 ± 0.05 nM | 105 ± 4.56% | 0.17 ± 0.02 nM | 108 nM |  | 25.9 ± 16.9 nM |  | dns |  | dns
